Test results published in paper PMC11808397, “Development of selective nanomolar cyclic peptide ligands as GBA1 enzyme stabilisers” (RSC Chemical Biology, 2025).
Positions of bridges follow the written chain, without caps; N, C: chain ends. Non-standard residues stand in square brackets, D forms with d. Residues, ends and D or L forms follow the SMILES beside them.

Target: T1, GBA3 (Homo sapiens, UniProt Q9H227)
T1 construct: expressed in transfected cells
T1 sequence (Q9H227 1-469): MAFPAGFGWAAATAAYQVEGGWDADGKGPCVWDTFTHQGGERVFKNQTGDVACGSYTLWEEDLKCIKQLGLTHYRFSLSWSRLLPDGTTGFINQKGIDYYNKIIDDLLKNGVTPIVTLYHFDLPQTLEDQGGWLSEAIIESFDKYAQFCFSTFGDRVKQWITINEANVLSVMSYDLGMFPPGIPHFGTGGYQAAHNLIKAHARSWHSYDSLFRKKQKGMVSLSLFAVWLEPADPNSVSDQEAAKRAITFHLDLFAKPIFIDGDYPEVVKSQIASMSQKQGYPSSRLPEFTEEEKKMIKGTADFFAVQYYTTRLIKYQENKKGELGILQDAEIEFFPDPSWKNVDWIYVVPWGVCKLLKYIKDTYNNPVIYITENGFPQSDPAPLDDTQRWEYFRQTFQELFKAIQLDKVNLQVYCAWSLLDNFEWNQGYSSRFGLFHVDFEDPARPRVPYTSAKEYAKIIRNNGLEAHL
Assay: GBA3 inhibition in overexpressing HEK293T lysates
Assay type: biochemical
Conditions: 100 mM HEPES, 4-MU substrate
Protocol: Based on the pull-down validation, a set of eight cyclic peptides (L1, L2, L4, L6, D1, D8, D12 and D13) were identified, synthesized, and evaluated for their inhibitory potency against recombinant human GBA1 (rhGBA1, Cerezyme®) and their selectivity over human β-glucosidases GBA2 and GBA3. Half-maximum inhibitory concentration (IC50) values for β-glucosidases were determined in vitro by measuring hydrolysis of 4-methylumbelliferyl-β-D-glucopyranoside (4-MU-β-D-Glu) fluorogenic substrate. […]
Pure product fractions were pooled, lyophilized, and dissolved again in DMSO before concentration was determined by A280 using a sample diluted in phosphate buffer at pH 7.4 and extinction coefficients determined from the sequence using the Expasy ProtParam online tool (https://web.expasy.org/protparam/). […]
2.5. In vitro IC50 and Ki measurements […]
nM) at 37 °C for 30 min. Following this, 100 µL of 4MU substrate was added and the samples were again incubated at 37 °C for 30 min. The reaction was quenched using excess 1 M NaOH-glycine (200 µL, pH 10.3) and 4MU fluorescence was measured using a LS55 fluorimeter (λEx 366 nm and λEm 445 […]
GBA2 and GBA3 IC50 values were determined following a similar protocol,5 using stable GBA2 or GBA3 HEK293T over-expression cell lysates and McIlvaine buffer pH 5.8 with 0.1 % BSA (w/v) and 100 mM HEPES with 0.1 % BSA, respectively. Covalent inhibitor of endogenous GBA1 (1 µM Bodipy green-cyclophellitol β-epoxide activity based probe) was added for both GBA2 and GBA3 assays, and GBA2 inhibitor N-(5-adamantane-1-yl-methoxy-pentyl)-deoxynojirimycin, AMP-DNM at 1 nM) was added for GBA3 assay. Cell lysates were pre-incubated with the aforementioned GBA1/GBA2 inhibitors for 30 min at 37 °C (12.5 µL) and subsequently incubated with the tested ligands at a range of concentrations for 30 min at 37 °C (12.5 µL), after which 100 µL 4MU-β-D-glucopyranoside was added for a final incubation of 30 min at 37 °C, quenched with 200 µL 1 M NaOH-glycine (pH 10.3) and fluorescence was measured. IC50 values were calculated using GraphPad Prism version 8.

| Compound | IC50 [µM] |
| --- | --- |
| CC[C@H](C)[C@H](NC(=O)[C@H](CC(C)C)NC(=O)[C@H](Cc1ccc(O)cc1)NC(=O)[C@H](Cc1ccc(O)cc1)NC(=O)[C@@H]1CSCC(=O)N[C@H](Cc2ccc(O)cc2)C(=O)N[C@@H](CCCNC(=N)N)C(=O)N[C@@H](C(C)C)C(=O)N1)C(=O)N[C@H](C(=O)N[C@H](C(=O)N[C@@H](CC(C)C)C(=O)N[C@@H](CC(=O)O)C(=O)N[C@@H](CS)C(N)=O)C(C)C)[C@@H](C)O [D1] ({CH2CO}-[dY]RVCYYLITVLDC-NH2; thioether N-4) | > 100 |
| CC(C)C[C@H](NC(=O)[C@@H](NC(=O)[C@H](CCCNC(=N)N)NC(=O)[C@@H]1CSCC(=O)N[C@H](Cc2ccc(O)cc2)C(=O)N[C@@H]([C@@H](C)O)C(=O)N2CCC[C@H]2C(=O)NCC(=O)N[C@@H](Cc2ccc(O)cc2)C(=O)N[C@@H](C(C)C)C(=O)N[C@@H](Cc2ccc(O)cc2)C(=O)N1)C(C)C)C(=O)N[C@@H](CCCCN)C(=O)N[C@@H](Cc1ccc(O)cc1)C(=O)N[C@@H](CS)C(N)=O [D8] ({CH2CO}-[dY]TPGYVYCRVLKYC-NH2; thioether N-8) | > 100 |
| CC(C)C[C@@H]1NC(=O)CNC(=O)[C@H](CC(C)C)NC(=O)[C@@H](Cc2ccc(O)cc2)NC(=O)CSC[C@@H](C(N)=O)NC(=O)[C@H](CO)NC(=O)[C@H](CCCCN)NC(=O)[C@H](CC(C)C)NC(=O)[C@H](Cc2ccccc2)NC(=O)[C@H](CCCNC(=N)N)NC(=O)[C@H](Cc2ccc(O)cc2)NC(=O)[C@H](Cc2c[nH]c3ccccc23)NC1=O [D12] ({CH2CO}-[dY]LGLWYRFLKSC-NH2; thioether N-12) | ~85 |
| CC[C@H](C)[C@@H]1NC(=O)[C@H](CO)NC(=O)[C@H](CS)NC(=O)CNC(=O)CNC(=O)[C@H](CC(C)C)NC(=O)[C@H](Cc2ccc(O)cc2)NC(=O)[C@H](C(C)C)NC(=O)[C@H](CC(C)C)NC(=O)[C@H](CCCNC(=N)N)NC(=O)[C@@H]2CCCN2C(=O)[C@H](Cc2ccc(O)cc2)NC(=O)CSC[C@@H](C(N)=O)NC(=O)[C@H](CCC(=O)O)NC(=O)[C@H](CC(C)C)NC(=O)[C@H](CC(C)C)NC1=O [L1] ({CH2CO}-YPRLVYLGGCSILLEC-NH2; thioether N-16) | > 100 |
| CC[C@H](C)[C@H](NC(=O)[C@H](CCCNC(=N)N)NC(=O)[C@@H]1CSCC(=O)N[C@@H](Cc2ccc(O)cc2)C(=O)N[C@@H](C)C(=O)N[C@@H](Cc2ccc(O)cc2)C(=O)N[C@@H](Cc2c[nH]c3ccccc23)C(=O)N[C@@H](Cc2c[nH]c3ccccc23)C(=O)N[C@@H](CC(C)C)C(=O)N1)C(=O)N1CCC[C@H]1C(=O)N[C@@H](Cc1c[nH]c2ccccc12)C(=O)N[C@@H](CC(C)C)C(=O)N[C@@H](CO)C(=O)N[C@H](C(N)=O)C(C)C [L2] ({CH2CO}-YAYWWLCRIPWLSV-NH2; thioether N-7) | > 100 |
| CC(C)C[C@@H]1NC(=O)CNC(=O)[C@H](Cc2ccccc2)NC(=O)[C@H](CC(C)C)NC(=O)[C@@H]2CCCN2C(=O)[C@H](Cc2ccc(O)cc2)NC(=O)CSC[C@@H](C(=O)N2CCC[C@H]2C(=O)N[C@@H](CC(N)=O)C(=O)N[C@@H](Cc2c[nH]c3ccccc23)C(=O)N[C@@H](Cc2ccccc2)C(=O)N2CCC[C@H]2C(=O)N[C@@H](Cc2ccc(O)cc2)C(=O)N[C@@H](CCC(N)=O)C(=O)N[C@@H](CS)C(N)=O)NC(=O)[C@H](CO)NC(=O)[C@H](Cc2ccccc2)NC1=O [L4] ({CH2CO}-YPLFGLFSCPNWFPYQC-NH2; thioether N-9) | > 100 |
| CC[C@H](C)[C@@H]1NC(=O)[C@H](Cc2ccc(O)cc2)NC(=O)CSC[C@@H](C(N)=O)NC(=O)[C@H](Cc2c[nH]c3ccccc23)NC(=O)[C@H](CCC(N)=O)NC(=O)[C@H]([C@@H](C)CC)NC(=O)[C@H]([C@@H](C)CC)NC(=O)[C@@H]2CCCN2C(=O)[C@H](C(C)C)NC(=O)[C@H](Cc2ccc(O)cc2)NC(=O)[C@H](Cc2c[nH]c3ccccc23)NC(=O)[C@H](CO)NC1=O [L6] ({CH2CO}-YISWYVPIIQWC-NH2; thioether N-12) | > 100 |
